We go through three substances from patent US8067036B2, “Gnetum extract” (Hosoda SHC Inc., priority 2004, dated 2011).

Assay [1] in a line: DPPH radical scavenging (antioxidative action) test. In kind it is biochemical. As to conditions: rank order among Gnetin C, Gnemonocide A, D. As to the method: After 6 hours, decreases of absorbance (absorbance difference) at 517 nm of these reaction solutions were measured.
A general note: DPPH is a stable violet radical that fades when it is reduced.

Assay [2] concerns hay bacillus, Escherichia coli, sake yeast, penicillium. Put plainly: Antimicrobial action/effect (overall statement). Type of assay: cell-based. The following applies: rank order among Gnetin C, Gnemonocide A, D.

For the substance Gnemonocide A, in assay [1], the “order of scavenging radical action (antioxidative effect) to DPPH” value is recorded as “Gnetin C>Gnemonocide C≈Gnemonocide D>Gnemonocide A”. In assay [2], the “order of antimicrobial action of the identified ingredients” value is “does not show the antimicrobial action”.
In the case of Gnemonocide C, in assay [1], the “order of scavenging radical action (antioxidative effect) to DPPH” value was “Gnetin C>Gnemonocide C≈Gnemonocide D>Gnemonocide A”. Further, the “order of antimicrobial action of the identified ingredients” value in assay [2] was “Gnetin C>Gnemonocide C≈Gnemonocide D”.
The corresponding values for Gnemonocide D are “Gnetin C>Gnemonocide C≈Gnemonocide D>Gnemonocide A” and “Gnetin C>Gnemonocide C≈Gnemonocide D”.
